Patent US9321764B2, “Dihydro-pyrrolopyridinone inhibitors” (AbbVie Inc., priority 2013, dated 2016)

What was measured:
BRD4 (BDII_E352-M457) = biological target: T1, BRD4 (BDII_E352-M457) (Homo sapiens, UniProt O60885); assay: TR-FRET bromodomain binding assay, second bromodomain of BRD4; conditions: His-tagged BD2, 30 nM Alexa647 probe; TR-FRET protocol A-E given per row
T1 construct: proliferation; Protocol; made in house
Description: (§1) A time-resolved fluorescence resonance energy transfer (TR-FRET) assay was used to determine the affinities of compounds of the Examples listed in Table 1 for each bromodomain of BRD4. His-tagged first (BD1: amino acids K57-E168) and second (BD2: amino acids E352-E168) bromodomains of BRD4 were expressed and purified. An Alexa647-labeled BET-inhibitor was used as the fluorescent probe in the assay.
(§2) Compound dilution series were prepared in DMSO via an approximately 3-fold serial dilution from one of the following:
(§3) Assay method D: 2.5 mM-800 nM
For Assay methods A, C, and D: Compounds were then diluted 6:100 in assay buffer (20 mM Sodium Phosphate, pH 6.0, 50 mM NaCl, 1 mM Ethylenediaminetetraacetic acid, 0.01% Triton X-100, 1 mM DL-Dithiothreitol) to yield 3× working solutions. […] Twelve μL of this solution were added to the assay plate to reach a final volume of 18 μL.
TR-FRET data were normalized to the means of 24 no-compound controls (“high”) and 8 controls containing 1 μM un-labeled probe (“low”). Percent inhibition was plotted as a function of compound concentration and the data were fit with the 4 parameter logistic equation to obtain IC50s Inhibition constants (Ki) were calculated from the IC50s, probe Kd and probe concentration. Typical Z′ values were between 0.65 and 0.75.

BRD4 (BDI_K57-E168) = biological target: T2, BRD4 (BDI_K57-E168) (Homo sapiens, UniProt O60885); assay: TR-FRET bromodomain binding assay, first bromodomain of BRD4; conditions: His-tagged BD1, 100 nM Alexa647 probe; TR-FRET protocol A-E given per row
T2 construct: BD1: amino acids K57-E168; made in house
Description: as §1, §2
Assay method A: 250 μM-4.2 nM
Assay method B: 0.47 mM to 7.8 nM
Assay method C: 500 μM-8.5 nM
as §3
Assay method E: 0.047 mM to 0.78 nM or 5-fold serial dilution from Assay method D
For Assay methods A, C, and D: Compounds were then diluted 6:100 in assay buffer (20 mM Sodium Phosphate, pH 6.0, 50 mM NaCl, 1 mM Ethylenediaminetetraacetic acid, 0.01% Triton X-100, 1 mM DL-Dithiothreitol) to yield 3× working solutions. Six microliters (μL) of the working solution was then transferred to white, low-volume assay plates (Costar #3673). A 1.5× assay mixture containing His-tagged bromodomain, Europium-conjugated anti-His antibody (Invitrogen PV5596) and the Alexa-647-conjugated probe molecule was also prepared. Twelve μL of this solution were added to the assay plate to reach a final volume of 18 μL.
For Assay methods B and E: Compound dilutions were added directly into white, low-volume assay plates (Perkin Elmer Proxiplate 384 Plus #6008280) using a Labcyte Echo in conjunction with Labcyte Access and Thermo Multidrop CombinL robotics. Compounds were then suspended in eight microliters (μL) of assay buffer (20 mM Sodium Phosphate, pH 6.0, 50 mM NaCl, 1 mM Ethylenediaminetetraacetic acid disodium salt dihydrate, 0.01% Triton X-100, 1 mM DL-Dithiothreitol) containing His-tagged bromodomain, Europium-conjugated anti-His antibody (Invitrogen PV5596) and Alexa-647-conjugated probe.
The final concentration of 1× assay mixture for assay methods A, B, C, D, and E contains 2% DMSO, 8 nM His-tagged bromodomain, 1 nM Europium-conjugated anti-His-tag antibody and 100 nM or 30 nM probe (for BDI or BDII, respectively) and compound concentration in the range of: 5 μM-85 pM for method A, 9.19 μM 150 pM for method B, 10 μM-169 pM for method C, 50 μM-16 nM for method D, and 0.92 μM-15 pM for method E.
After a one-hour equilibration at room temperature, TR-FRET ratios were determined using an Envision multilabel plate reader (Ex 340, Em 495/520).
TR-FRET data were normalized to the means of 24 no-compound controls (“high”) and 8 controls containing 1 μM un-labeled probe (“low”). Percent inhibition was plotted as a function of compound concentration and the data were fit with the 4 parameter logistic equation to obtain IC50s Inhibition constants (Ki) were calculated from the IC50s, probe Kd and probe concentration. Typical Z′ values were between 0.65 and 0.75. The minimum significant ratio was determined to evaluate assay reproducibility (Eastwood et al., (2006) J Biomol Screen, 11: 253-261). The MSR was determined to be 2.03 for BDI and 1.93 for BDII, and a moving MSR (last six run MSR overtime) for both BDI and BDII was typically <3.

Compound | Ki (BRD4 (BDII_E352-M457)) [nM] | Ki (BRD4 (BDI_K57-E168)) [nM]
CCS(=O)(=O)c1ccc(Oc2cncc(C)n2)c(-c2cn(C)c3c(=O)[nH]ccc23)c1 [Example 86, 3-{5-(ethylsulfonyl)-2-[(6-methylpyrazin-2-yl)oxy]phenyl}-1-methyl-1,6-dihydro-7H-pyrrolo[2,3-c]pyridin-7-one] | 764 | 697
CCS(=O)(=O)c1ccc(Oc2cncnc2)c(-c2cn(C)c3c(=O)[nH]ccc23)c1 [Example 88, 3-[5-(ethylsulfonyl)-2-(pyrimidin-5-yloxy)phenyl]-1-methyl-1,6-dihydro-7H-pyrrolo[2,3-c]pyridin-7-one] | 739 | 287
Cn1cc(-c2cc(CS(C)(=O)=O)ccc2Oc2ccc(F)cc2F)c2cc(-c3cc(CS(C)(=O)=O)ccc3Oc3ccc(F)cc3F)[nH]c(=O)c21 [Example 93, 3,5-bis{2-(2,4-difluorophenoxy)-5-[(methylsulfonyl)methyl]phenyl}-1-methyl-1,6-dihydro-7H-pyrrolo[2,3-c]pyridin-7-one] | 619 | 484
Cc1noc(C)c1-c1cc2c(-c3cc(CS(C)(=O)=O)ccc3Oc3ccc(F)cc3F)cn(C)c2c(=O)[nH]1 [Example 94, 3-{2-(2,4-difluorophenoxy)-5-[(methylsulfonyl)methyl]phenyl}-5-(3,5-dimethyl-1,2-oxazol-4-yl)-1-methyl-1,6-dihydro-7H-pyrrolo[2,3-c]pyridin-7-one] | 1870 | 168
Cn1cc(-c2c(OCC3CC3)ccc3cc[nH]c23)c2cc[nH]c(=O)c21 [Example 98, 3-[6-(cyclopropylmethoxy)-1H-indol-7-yl]-1-methyl-1,6-dihydro-7H-pyrrolo[2,3-c]pyridin-7-one] | 2030 | 992
CCOC(=O)c1cc2c(-c3cn(C)c4c(=O)[nH]ccc34)c(OCC3CC3)ccc2[nH]1 [Example 99, ethyl 5-(cyclopropylmethoxy)-4-(1-methyl-7-oxo-6,7-dihydro-1H-pyrrolo[2,3-c]pyridin-3-yl)-1H-indole-2-carboxylate] | 2430 | > 2380
CNC(=O)c1cc2c(-c3cn(C)c4c(=O)[nH]ccc34)c(OCC3CC3)ccc2[nH]1 [Example 107, 5-(cyclopropylmethoxy)-N-methyl-4-(1-methyl-7-oxo-6,7-dihydro-1H-pyrrolo[2,3-c]pyridin-3-yl)-1H-indole-2-carboxamide] | 407 | > 2380
Cn1cc(-c2cc(CNC3CCNCC3)ccc2Oc2ccc(F)cc2F)c2cc[nH]c(=O)c21 [Example 112, 3-{2-(2,4-difluorophenoxy)-5-[(piperidin-4-ylamino)methyl]phenyl}-1-methyl-1,6-dihydro-7H-pyrrolo[2,3-c]pyridin-7-one] | 1050 | 1050
CC(C)CCNCc1ccc(Oc2ccc(F)cc2F)c(-c2cn(C)c3c(=O)[nH]ccc23)c1 [Example 117, 3-[2-(2,4-difluorophenoxy)-5-{[(3-methylbutyl)amino]methyl}phenyl]-1-methyl-1,6-dihydro-7H-pyrrolo[2,3-c]pyridin-7-one] | 750 | 776
Cc1c[nH]c(=O)c2c1c(-c1cc(S(C)(=O)=O)ccc1Oc1ccc(F)cc1F)cn2C [Example 123, 3-[2-(2,4-difluorophenoxy)-5-(methylsulfonyl)phenyl]-1,4-dimethyl-1,6-dihydro-7H-pyrrolo[2,3-c]pyridin-7-one] | 428 | 130
Cn1cc(-c2cc(CN3CCC(C(F)(F)F)CC3)ccc2Oc2ccc(F)cc2F)c2cc[nH]c(=O)c21 [Example 129, 3-[2-(2,4-difluorophenoxy)-5-{[4-(trifluoromethyl)piperidin-1-yl]methyl]phenyl}-1-methyl-1,6-dihydro-7H-pyrrolo[2,3-c]pyridin-7-one] | 1190 | 1140
Cn1cc(-c2cc(CN)ccc2Oc2ccc(F)cc2F)c2cc[nH]c(=O)c21 [Example 136, 3-[5-(aminomethyl)-2-(2,4-difluorophenoxy)phenyl]-1-methyl-1,6-dihydro-7H-pyrrolo[2,3-c]pyridin-7-one] | 1320 | 1090

Stronger by Ki (BRD4 (BDII_E352-M457)), values ahead:

Ki (BRD4 (BDII_E352-M457)) [nM] | Ki (BRD4 (BDI_K57-E168)) [nM] | Compound
64 | 77 | CCS(=O)(=O)c1ccc(Oc2ccc(Cl)c(Cl)c2)c(-c2cn(C)c3c(=O)[nH]ccc23)c1 [Example 76, 3-[2-(3,4-dichlorophenoxy)-5-(ethylsulfonyl)phenyl]-1-methyl-1,6-dihydro-7H-pyrrolo[2,3-c]pyridin-7-one]
139 | 62 | CCS(=O)(=O)c1ccc(Oc2ccc(C(F)(F)F)cc2)c(-c2cn(C)c3c(=O)[nH]ccc23)c1 [Example 77, 3-{5-(ethylsulfonyl)-2-[4-(trifluoromethyl)phenoxy]phenyl}-1-methyl-1,6-dihydro-7H-pyrrolo[2,3-c]pyridin-7-one]
84 | 150 | CCc1cc(Oc2ccc(S(=O)(=O)CC)cc2-c2cn(C)c3c(=O)[nH]ccc23)ccc1Cl [Example 79, 3-[2-(4-chloro-3-ethylphenoxy)-5-(ethylsulfonyl)phenyl]-1-methyl-1,6-dihydro-7H-pyrrolo[2,3-c]pyridin-7-one]
53 | 56 | CCS(=O)(=O)c1ccc(Oc2ccc(C#N)cc2OC)c(-c2cn(C)c3c(=O)[nH]ccc23)c1 [Example 80, 4-[4-(ethylsulfonyl)-2-(1-methyl-7-oxo-6,7-dihydro-1H-pyrrolo[2,3-c]pyridin-3-yl)phenoxy]-3-methoxybenzonitrile]
100 | 81 | CCS(=O)(=O)c1ccc(Oc2cccnc2)c(-c2cn(C)c3c(=O)[nH]ccc23)c1 [Example 81, 3-[5-(ethylsulfonyl)-2-(pyridin-3-yloxy)phenyl]-1-methyl-1,6-dihydro-7H-pyrrolo[2,3-c]pyridin-7-one]
49 | 66 | CCS(=O)(=O)c1ccc(Oc2ccc(Cl)cc2Cl)c(-c2cn(C)c3c(=O)[nH]ccc23)c1 [Example 82, 3-[2-(2,4-dichlorophenoxy)-5-(ethylsulfonyl)phenyl]-1-methyl-1,6-dihydro-7H-pyrrolo[2,3-c]pyridin-7-one]
25 | 55 | CCS(=O)(=O)c1ccc(Oc2cccc(Cl)c2Cl)c(-c2cn(C)c3c(=O)[nH]ccc23)c1 [Example 84, 3-[2-(2,3-dichlorophenoxy)-5-(ethylsulfonyl)phenyl]-1-methyl-1,6-dihydro-7H-pyrrolo[2,3-c]pyridin-7-one]
17 | 44 | CCS(=O)(=O)c1ccc(Oc2ccc(OC)cc2Cl)c(-c2cn(C)c3c(=O)[nH]ccc23)c1 [Example 85, 3-[2-(2-chloro-4-methoxyphenoxy)-5-(ethylsulfonyl)phenyl]-1-methyl-1,6-dihydro-7H-pyrrolo[2,3-c]pyridin-7-one]
104 | 127 | Cc1c[nH]c(=O)c2c1c(-c1cc(S(C)(=O)=O)ccc1OCCC1CC1)cn2C [Example 124, 3-[2-(2-cyclopropylethoxy)-5-(methylsulfonyl)phenyl]-1,4-dimethyl-1,6-dihydro-7H-pyrrolo[2,3-c]pyridin-7-one]
